The results in this text go back to US11339171B2, “MDM2 inhibitors” (Gan & Lee Pharmaceuticals, priority 2017, dated 2022).

One assay deals with T1, MDM2 (Homo sapiens, UniProt Q00987).
T1 construct: made in house
Briefly: Inhibition test of MDM2-P53 (GST-MDM2, Biotin-P53, Anti-GST-Tb, SA-XL665). In kind it is binding. A digest of the protocol:
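Binding was measured by TR-FRET with GST-MDM2 at 4 nM final in PBS with 0.1% BSA, 5 mM DTT and 1 mM AEBSF. Compounds were tested as twelve-point 5-fold dilutions and incubated with the detection mix for 90 min at 25 °C with shaking before plate-reader reading and curve fitting.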

In assay [1] the test system is human osteosarcoma cell line SJSA-1. Briefly: Inhibition of proliferation of human osteosarcoma cell line SJSA-1 (DAPI staining, In Cell Analyzer). To be noted: for inhibitory effect on human osteosarcoma cell line SJSA-1 compared with positive control compound HDM201: labels are Example numbers, the compounds with S-configuration are meant.
Setting [2] is: Homo sapiens, SJSA-1, 72 h, read-out: IC50 (nM), inhibitory activity on proliferation of human osteosarcoma cell line SJSA-1, SJSA-1, incubated 72 h.

Structures are written as SMILES. Read-outs that look alike come from different tables or passages of the source.

T1 sequence (Q00987 whole entry): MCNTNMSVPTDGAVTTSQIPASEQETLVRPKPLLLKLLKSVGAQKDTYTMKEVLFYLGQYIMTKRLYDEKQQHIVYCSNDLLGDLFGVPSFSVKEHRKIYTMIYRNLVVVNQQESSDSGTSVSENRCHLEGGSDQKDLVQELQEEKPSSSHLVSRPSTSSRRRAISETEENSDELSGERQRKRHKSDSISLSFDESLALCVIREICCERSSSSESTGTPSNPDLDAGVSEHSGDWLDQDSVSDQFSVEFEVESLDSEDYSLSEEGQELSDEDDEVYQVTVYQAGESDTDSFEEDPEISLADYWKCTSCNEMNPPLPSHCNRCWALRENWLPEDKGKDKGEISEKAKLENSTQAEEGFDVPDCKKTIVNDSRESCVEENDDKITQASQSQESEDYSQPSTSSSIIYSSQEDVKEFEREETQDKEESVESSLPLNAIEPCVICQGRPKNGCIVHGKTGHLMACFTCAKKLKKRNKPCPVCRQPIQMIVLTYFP

For `COc1ccc(-c2nc3c(n2C(C)C)[C@@]2(C(=O)Nc4cc(Cl)ccc42)N(c2cc(Cl)ccc2F)C3=O)c(OC)c1` [Example S-80, (S)-6-chloro-5′-(5-chloro-2-fluorophenyl)-2′-(2,4-dimethoxyphenyl)-3′-isopropyl-3′H-spiro[dihydroindole-3,4′-pyrrolo[3,4-d]imidazole]-2,6′(5′H)-dione], the IC50 against MDM2 is 2.56 nM; in assay [1] (setting [2]), 16.9 nM.

For `COc1cc(CN(C)C)ccc1-c1nc2c(n1C(C)C)[C@]1(C(=O)Nc3cc(Cl)ccc31)N(c1cc(Cl)ccc1C)C2=O` [Example R-47, (R)-6-chloro-5′-(5-chloro-2-methylphenyl)-2′-(4-((dimethylamino)methyl)-2-methoxyphenyl)-3′-isopropyl-3′H-spiro[dihydroindole-3,4′-pyrrolo[3,4-d]imidazole]-2,6′(5′H)-dione], the IC50 at MDM2 amounted to 210 nM; in assay [1] (setting [2]), 3850 nM.

With `COc1nc(C#N)ncc1-c1nc2c(n1C(C)C)C1(C(=O)Nc3cc(Cl)ccc31)N(c1cc(Cl)ccc1C)C2=O` (centres unmarked) [Example 179], the IC50 against MDM2 is 4.27 nM; in assay [1] (setting [2]), 52.7 nM.

Consider `COc1ncc(-c2nc3c(n2C(C)C)[C@]2(C(=O)Nc4cc(Cl)ccc42)N(c2cccc(C)c2)C3=O)c(OC)n1` [Example R-55, (R)-6-chloro-2′-(2,4-dimethoxypyrimidin-5-yl)-3′-isopropyl-5′-(m-tolyl)-3′H-spiro[dihydroindole-3,4′-pyrrolo[3,4-d]imidazole]-2,6′(5′H)-dione], for which the values for the IC50 (at MDM2; in assay [1] (setting [2])) were 437 nM and 9940 nM, respectively.

For the molecule `COc1cc(N)c(F)cc1-c1nc2c(n1C(C)C)[C@]1(C(=O)Nc3cc(Cl)ccc31)N(c1cc(Cl)ccc1C)C2=O` [Example R-75, (R)-2′-(4-amino-5-fluoro-2-methoxyphenyl)-6-chloro-5′-(5-chloro-2-methylphenyl)-3′-isopropyl-3′H-spiro[dihydroindole-3,4′-pyrrolo[3,4-d]imidazole]-2,6′(5′H)-dione], the IC50 was 122 nM against MDM2 and 3040 nM in assay [1] (setting [2]).

`COc1nc(N2CCCC2)ncc1-c1nc2c(n1C(C)C)[C@@]1(C(=O)Nc3cc(Cl)ccc31)N(c1cc(Cl)ccc1C)C2=O` [Example S-114, (S)-6-chloro-5′-(5-chloro-2-methylphenyl)-3′-isopropyl-2′-(4-methoxy-2-(pyrrolidine-1-yl)pyrimidin-5-yl)-3′H-spiro[dihydroindole-3,4′-pyrrolo[3,4-d]imidazole]-2,6′(5′H)-dione]: the IC50 worked out at 3.2 nM against MDM2 and 10.1 nM in assay [1] (setting [2]).

As to `CCN(C)c1ccc(-c2nc3c(n2C(C)C)C2(C(=O)Nc4cc(Cl)ccc42)N(c2cc(Cl)ccc2C)C3=O)c(OC)c1` (centres unmarked) [Example 99, 6-chloro-5′-(5-chloro-2-methylphenyl)-2′-(4-(ethyl(methyl)amino)-2-methoxyphenyl)-3′-isopropyl-3′H-spiro[dihydroindole-3,4′-pyrrolo[3,4-d]imidazole]-2,6′(5′H)-dione], the “inhibitory effect on human osteosarcoma cell line SJSA-1 compared with positive control compound HDM201” value in assay [1] is reported as “better”.

Turning to `CCc1ccc(-c2nc3c(n2C(C)C)C2(C(=O)Nc4cc(Cl)ccc42)N(c2cc(Cl)ccc2C)C3=O)c(OC)c1` (centres unmarked) [Example 33, 6-chloro-5′-(5-chloro-2-methylphenyl)-2′-(4-ethyl-2-methoxyphenyl)-3′-isopropyl-3′H-spiro[dihydroindole-3,4′-pyrrolo[3,4-d]imidazole]-2,6′(5′H)-dione], the “inhibitory effect on human osteosarcoma cell line SJSA-1 compared with positive control compound HDM201” value in assay [1] is listed as “better”.

Take `COc1cc(N(C)C)c(C)cc1-c1nc2c(n1C(C)C)C1(C(=O)Nc3cc(Cl)ccc31)N(c1cc(Cl)ccc1C)C2=O` (centres unmarked) [Example 91, 6-chloro-5′-(5-chloro-2-methylphenyl)-2′-(4-(dimethylamino)-2-methoxy-5-methylphenyl)-3′-isopropyl-3′H-spiro[dihydroindole-3,4′-pyrrolo[3,4-d]imidazole]-2,6′(5′H)-dione]: the “inhibitory effect on human osteosarcoma cell line SJSA-1 compared with positive control compound HDM201” value in assay [1] is given as “better”.

`COc1nc(C(C)C)ncc1-c1nc2c(n1C(C)C)C1(C(=O)Nc3cc(Cl)ccc31)N(c1cc(Cl)ccc1C)C2=O` (centres unmarked) [Example 172, 6-chloro-5′-(5-chloro-2-methylphenyl)-3′-isopropyl-2′-(2-isopropyl-4-methoxypyrimidin-5-yl)-3′H-spiro[dihydroindole-3,4′-pyrrolo[3,4-d]imidazole]-2,6′(5′H)-dione]: the “inhibitory effect on human osteosarcoma cell line SJSA-1 compared with positive control compound HDM201” value in assay [1] is “better”.

As for `CCOc1ccc(-c2nc3c(n2C(C)C)C2(C(=O)Nc4cc(Cl)ccc42)N(c2cc(Cl)ccc2C)C3=O)c(OC)n1` (centres unmarked) [Example 146, 6-chloro-5′-(5-chloro-2-methylphenyl)-2′-(6-ethoxy-2-methoxypyridin-3-yl)-3′-isopropyl-3′H-spiro[dihydroindole-3,4′-pyrrolo[3,4-d]imidazole]-2,6′(5′H)-dione], in assay [1], the “inhibitory effect on human osteosarcoma cell line SJSA-1 compared with positive control compound HDM201” value was “better”.

As for `COc1cc(C(C)C)ccc1-c1nc2c(n1C(C)C)C1(C(=O)Nc3cc(Cl)ccc31)N(c1cc(Cl)cnc1C)C2=O` (centres unmarked) [Example 89, 6-chloro-5′-(5-chloro-2-methylpyridin-3-yl)-3′-isopropyl-2′-(4-isopropyl-2-methoxyphenyl)-3′H-spiro[dihydroindole-3,4′-pyrrolo[3,4-d]imidazole]-2,6′(5′H)-dione], in assay [1], the “inhibitory effect on human osteosarcoma cell line SJSA-1 compared with positive control compound HDM201” value is reported as “better”.

Turning to `CCOc1ncc(-c2nc3c(n2C(C)C)C2(C(=O)Nc4cc(Cl)ccc42)N(c2cc(Cl)ccc2C)C3=O)c(OC)n1` (centres unmarked) [Example 127], the “inhibitory effect on human osteosarcoma cell line SJSA-1 compared with positive control compound HDM201” value in assay [1] was “better”.

Regarding `COc1ccc(-c2nc3c(n2C(C)C)C2(C(=O)Nc4cc(Cl)ccc42)N(c2cc(Cl)ccc2C)C3=O)c(OC)c1` (centres unmarked) [Example 9, 6-chloro-5′-(5-chloro-2-methylphenyl)-2′-(2,4-dimethoxyphenyl)-3′-isopropyl-3′H-spiro[dihydroindole-3,4′-pyrrolo[3,4-d]imidazole]-2,6′(5′H)-dione], the “inhibitory effect on human osteosarcoma cell line SJSA-1 compared with positive control compound HDM201” value in assay [1] is “better”.

Regarding `COc1nc(N(C)C)ccc1-c1nc2c(n1C(C)C)C1(C(=O)Nc3cc(Cl)ccc31)N(c1cc(Cl)ccc1C)C2=O` (centres unmarked) [Example 157, 6-chloro-5′-(5-chloro-2-methylphenyl)-2′-(6-(dimethylamino)-2-methoxypyridin-3-yl)-3′-isopropyl-3′H-spiro[dihydroindole-3,4′-pyrrolo[3,4-d]imidazole]-2,6′(5′H)-dione], in assay [1], the “inhibitory effect on human osteosarcoma cell line SJSA-1 compared with positive control compound HDM201” value was “better”.

`COc1cc(OC)c(-c2nc3c(n2C(C)C)C2(C(=O)Nc4cc(Cl)ccc42)N(c2cc(Cl)ccc2C)C3=O)cc1C` (centres unmarked) [Example 83, 6-chloro-5′-(5-chloro-2-methylphenyl)-2′-(2,4-dimethoxy-5-methylphenyl)-3′-isopropyl-3′H-spiro[dihydroindole-3,4′-pyrrolo[3,4-d]imidazole]-2,6′(5′H)-dione]: the “inhibitory effect on human osteosarcoma cell line SJSA-1 compared with positive control compound HDM201” value in assay [1] is listed as “better”.

On to `COc1cc(N(C)C)ccc1-c1nc2c(n1C(C)C)C1(C(=O)Nc3cc(Cl)ccc31)N(c1cc(Cl)ccc1C)C2=O` (centres unmarked) [Example 23, 6-chloro-5′-(5-chloro-2-methylphenyl)-2′-(4-(dimethylamino)-2-methoxyphenyl)-3′-isopropyl-3′H-spiro[dihydroindole-3,4′-pyrrolo[3,4-d]imidazole]-2,6′(5′H)-dione], for which, in assay [1], the “inhibitory effect on human osteosarcoma cell line SJSA-1 compared with positive control compound HDM201” value is given as “better”.

Take `COc1cc(F)ccc1-c1nc2c(n1C(C)C)C1(C(=O)Nc3cc(Cl)ccc31)N(c1cc(Cl)ccc1C)C2=O` (centres unmarked) [Example 4, 6-chloro-5′-(5-chloro-2-methylphenyl)-2′-(4-fluoro-2-methoxyphenyl)-3′-isopropyl-3′H-spiro[dihydroindole-3,4′-pyrrolo[3,4-d]imidazole]-2,6′(5′H)-dione]: the “inhibitory effect on human osteosarcoma cell line SJSA-1 compared with positive control compound HDM201” value in assay [1] is recorded as “better”.

In the case of `COc1cc(C)ccc1-c1nc2c(n1C(C)C)C1(C(=O)Nc3cc(Cl)ccc31)N(c1cc(Cl)ccc1C)C2=O` (centres unmarked) [Example 24, 6-chloro-5′-(5-chloro-2-methylphenyl)-3′-isopropyl-2′-(2-methoxy-4-methylphenyl)-3′H-spiro[dihydroindole-3,4′-pyrrolo[3,4-d]imidazole]-2,6′(5′H)-dione], the “inhibitory effect on human osteosarcoma cell line SJSA-1 compared with positive control compound HDM201” value in assay [1] was “better”.

As for `COc1nc(N2CCCC2)ncc1-c1nc2c(n1C(C)C)C1(C(=O)Nc3cc(Cl)ccc31)N(c1cc(Cl)ccc1C)C2=O` (centres unmarked) [Example 114], in assay [1], the “inhibitory effect on human osteosarcoma cell line SJSA-1 compared with positive control compound HDM201” value is “better”.

`COc1nc(OCC(F)(F)F)ncc1-c1nc2c(n1C(C)C)C1(C(=O)Nc3cc(Cl)ccc31)N(c1cc(Cl)ccc1C)C2=O` (centres unmarked) [Example 141, 6-chloro-5′-(5-chloro-2-methylphenyl)-3′-isopropyl-2′-(4-methoxy-2-(2,2,2-trifluoroethoxy)pyrimidin-5-yl)-3′H-spiro[dihydroindole-3,4′-pyrrolo[3,4-d]imidazole]-2,6′(5′H)-dione]: the “inhibitory effect on human osteosarcoma cell line SJSA-1 compared with positive control compound HDM201” value in assay [1] is recorded as “better”.

For `COc1ccc(-c2nc3c(n2C(C)C)[C@@]2(C(=O)Nc4cc(Cl)ccc42)N(c2cccc(Cl)c2)C3=O)c(OC)c1` [Example S-36, (S)-6-chloro-5′-(3-chlorophenyl)-2′-(2,4-dimethoxyphenyl)-3′-isopropyl-3′H-spiro[dihydroindole-3,4′-pyrrolo[3,4-d]imidazole]-2,6′(5′H)-dione], the IC50 turned out to be 83.8 nM in assay [1] (setting [2]) and 72.3 nM in assay [1] (read-out: IC50 (nM), inhibitory activity on proliferation of human osteosarcoma cell line SJSA-1, SJSA-1, incubated 72 h).
